# Key:
# Experiment in all cases: ErbB2 mutant inhibition assay (33P-ATP radiometric kinase assay, Reaction Biology)
# Assay type in all cases: biochemical
# ErbB2 (D769H) = biological target: T1, ErbB2 (D769H) (Homo sapiens, UniProt P04626, D769H); conditions: ATP 10 μM, 20 min preincubation, 2 h reaction; read-out: Compound IC50 ErbB2 (D769H)
# T1 construct: purchased Reaction Biology Corporation
# Method: (§1) The reagents and materials used in the assay, as well as the testing procedure, were provided and carried out by Reaction Biology Corporation. The specific steps were as follows: • 1. […] Conditions for the enzyme reaction assay: The test compounds were incubated for 20 minutes, ATP concentration was set at 10 μM, and the total duration of the enzyme reaction was 2 hours. • 3. Experimental steps for the enzyme reaction
# (§2) The enzyme reaction buffer was 20 mM HEPES at a pH of 7.5, 10 mM MgCl2, 2 mM MnCl2, 1 mM EGTA, 0.01% Brij35, 0.02 mg/mL BSA, 0.1 mM Na3VO4, 2 mM DTT, and 1% DMSO.
# (§3) Kinase activity %=(Remaining kinase activity of test compound samples/Kinase activity of solvent control samples (DMSO))*100%
# (§4) The IC50 of the compound was calculated by fitting the kinase activity % at different compound concentrations.
# ErbB2 (V777L) = biological target: T2, ErbB2 (V777L) (Homo sapiens, UniProt P04626, V777L); conditions: ATP 10 μM, 20 min preincubation, 2 h reaction; read-out: Compound IC50 ErbB2 (V777L)
# T2 construct: purchased Reaction Biology Corporation
# Method: as §1, §2, §3, §4
# ErbB2 (D769Y) = biological target: T3, ErbB2 (D769Y) (Homo sapiens, UniProt P04626, D769Y); conditions: ATP 10 μM, 20 min preincubation, 2 h reaction; read-out: Compound IC50 ErbB2 (D769Y)
# T3 construct: purchased Reaction Biology Corporation
# Method: as §1, §2, §3, §4
# ErbB2 (R896C) = biological target: T4, ErbB2 (R896C) (Homo sapiens, UniProt P04626, R896C); conditions: ATP 10 μM, 20 min preincubation, 2 h reaction; read-out: Compound IC50 ErbB2 (R896C)
# T4 construct: purchased Reaction Biology Corporation
# Method: as §1, §2, §3, §4
# T2 sequence (P04626 23-1255 V777L): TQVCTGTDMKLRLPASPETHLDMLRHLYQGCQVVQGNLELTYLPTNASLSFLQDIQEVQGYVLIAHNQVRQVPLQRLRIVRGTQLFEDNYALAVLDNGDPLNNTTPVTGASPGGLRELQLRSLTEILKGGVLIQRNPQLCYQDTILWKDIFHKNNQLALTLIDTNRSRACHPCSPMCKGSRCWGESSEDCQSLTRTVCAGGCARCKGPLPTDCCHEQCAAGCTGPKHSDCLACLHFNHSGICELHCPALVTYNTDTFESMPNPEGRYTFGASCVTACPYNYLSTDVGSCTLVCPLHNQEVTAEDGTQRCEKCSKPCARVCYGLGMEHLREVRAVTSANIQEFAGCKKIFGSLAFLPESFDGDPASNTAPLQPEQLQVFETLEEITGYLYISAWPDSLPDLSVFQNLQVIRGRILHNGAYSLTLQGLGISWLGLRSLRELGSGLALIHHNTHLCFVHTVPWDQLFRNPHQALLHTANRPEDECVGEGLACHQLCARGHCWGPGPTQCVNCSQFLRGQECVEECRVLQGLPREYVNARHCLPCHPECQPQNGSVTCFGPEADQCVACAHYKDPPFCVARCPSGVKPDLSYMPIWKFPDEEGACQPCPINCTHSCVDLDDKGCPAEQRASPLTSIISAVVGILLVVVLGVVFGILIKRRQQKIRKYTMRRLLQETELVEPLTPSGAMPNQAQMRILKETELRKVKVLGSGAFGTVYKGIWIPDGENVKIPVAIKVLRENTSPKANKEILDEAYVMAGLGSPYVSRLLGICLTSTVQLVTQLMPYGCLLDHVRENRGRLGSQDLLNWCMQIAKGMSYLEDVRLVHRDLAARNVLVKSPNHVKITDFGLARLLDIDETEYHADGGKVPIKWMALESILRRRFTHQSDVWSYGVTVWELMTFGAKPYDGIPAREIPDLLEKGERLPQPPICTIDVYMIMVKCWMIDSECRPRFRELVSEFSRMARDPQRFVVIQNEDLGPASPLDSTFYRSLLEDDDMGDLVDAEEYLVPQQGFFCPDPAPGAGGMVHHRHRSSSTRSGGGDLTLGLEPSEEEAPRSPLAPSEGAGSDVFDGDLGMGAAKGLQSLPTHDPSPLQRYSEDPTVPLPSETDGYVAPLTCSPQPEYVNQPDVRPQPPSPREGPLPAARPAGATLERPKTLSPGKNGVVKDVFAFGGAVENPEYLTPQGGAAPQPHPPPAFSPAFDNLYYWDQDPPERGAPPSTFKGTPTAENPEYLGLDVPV
# T3 sequence (P04626 23-1255 D769Y): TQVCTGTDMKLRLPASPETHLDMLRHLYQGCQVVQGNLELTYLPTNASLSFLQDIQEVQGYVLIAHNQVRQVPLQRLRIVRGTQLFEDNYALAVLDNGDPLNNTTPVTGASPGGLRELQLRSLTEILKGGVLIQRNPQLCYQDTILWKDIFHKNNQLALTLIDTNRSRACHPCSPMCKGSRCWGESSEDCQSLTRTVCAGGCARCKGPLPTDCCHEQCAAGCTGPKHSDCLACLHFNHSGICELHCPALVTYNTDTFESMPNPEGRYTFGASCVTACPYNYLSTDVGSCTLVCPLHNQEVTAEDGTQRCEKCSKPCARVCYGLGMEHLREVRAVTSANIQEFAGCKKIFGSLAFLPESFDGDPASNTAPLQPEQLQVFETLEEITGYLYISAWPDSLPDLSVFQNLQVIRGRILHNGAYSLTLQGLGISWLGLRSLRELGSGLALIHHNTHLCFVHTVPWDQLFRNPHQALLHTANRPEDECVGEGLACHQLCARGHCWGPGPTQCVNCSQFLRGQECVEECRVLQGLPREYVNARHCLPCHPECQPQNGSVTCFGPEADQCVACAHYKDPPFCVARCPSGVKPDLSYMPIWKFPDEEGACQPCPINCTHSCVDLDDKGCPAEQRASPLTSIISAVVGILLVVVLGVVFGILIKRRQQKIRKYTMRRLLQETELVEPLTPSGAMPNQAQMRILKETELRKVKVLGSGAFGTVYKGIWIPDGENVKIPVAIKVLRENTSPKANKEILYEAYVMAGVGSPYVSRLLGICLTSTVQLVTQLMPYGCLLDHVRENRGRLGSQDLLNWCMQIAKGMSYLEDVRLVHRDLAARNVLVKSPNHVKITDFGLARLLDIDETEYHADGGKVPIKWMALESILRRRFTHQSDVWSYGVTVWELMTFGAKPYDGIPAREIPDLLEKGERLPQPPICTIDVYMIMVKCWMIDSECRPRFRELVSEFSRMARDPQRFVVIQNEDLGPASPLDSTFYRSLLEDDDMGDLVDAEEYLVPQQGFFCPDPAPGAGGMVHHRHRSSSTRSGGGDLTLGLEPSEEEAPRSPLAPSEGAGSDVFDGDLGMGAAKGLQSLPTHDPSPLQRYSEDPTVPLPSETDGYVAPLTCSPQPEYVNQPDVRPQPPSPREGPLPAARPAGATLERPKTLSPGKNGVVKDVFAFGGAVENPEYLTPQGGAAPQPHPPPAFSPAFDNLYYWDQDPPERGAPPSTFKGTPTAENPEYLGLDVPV
# T1 sequence (P04626 23-1255 D769H): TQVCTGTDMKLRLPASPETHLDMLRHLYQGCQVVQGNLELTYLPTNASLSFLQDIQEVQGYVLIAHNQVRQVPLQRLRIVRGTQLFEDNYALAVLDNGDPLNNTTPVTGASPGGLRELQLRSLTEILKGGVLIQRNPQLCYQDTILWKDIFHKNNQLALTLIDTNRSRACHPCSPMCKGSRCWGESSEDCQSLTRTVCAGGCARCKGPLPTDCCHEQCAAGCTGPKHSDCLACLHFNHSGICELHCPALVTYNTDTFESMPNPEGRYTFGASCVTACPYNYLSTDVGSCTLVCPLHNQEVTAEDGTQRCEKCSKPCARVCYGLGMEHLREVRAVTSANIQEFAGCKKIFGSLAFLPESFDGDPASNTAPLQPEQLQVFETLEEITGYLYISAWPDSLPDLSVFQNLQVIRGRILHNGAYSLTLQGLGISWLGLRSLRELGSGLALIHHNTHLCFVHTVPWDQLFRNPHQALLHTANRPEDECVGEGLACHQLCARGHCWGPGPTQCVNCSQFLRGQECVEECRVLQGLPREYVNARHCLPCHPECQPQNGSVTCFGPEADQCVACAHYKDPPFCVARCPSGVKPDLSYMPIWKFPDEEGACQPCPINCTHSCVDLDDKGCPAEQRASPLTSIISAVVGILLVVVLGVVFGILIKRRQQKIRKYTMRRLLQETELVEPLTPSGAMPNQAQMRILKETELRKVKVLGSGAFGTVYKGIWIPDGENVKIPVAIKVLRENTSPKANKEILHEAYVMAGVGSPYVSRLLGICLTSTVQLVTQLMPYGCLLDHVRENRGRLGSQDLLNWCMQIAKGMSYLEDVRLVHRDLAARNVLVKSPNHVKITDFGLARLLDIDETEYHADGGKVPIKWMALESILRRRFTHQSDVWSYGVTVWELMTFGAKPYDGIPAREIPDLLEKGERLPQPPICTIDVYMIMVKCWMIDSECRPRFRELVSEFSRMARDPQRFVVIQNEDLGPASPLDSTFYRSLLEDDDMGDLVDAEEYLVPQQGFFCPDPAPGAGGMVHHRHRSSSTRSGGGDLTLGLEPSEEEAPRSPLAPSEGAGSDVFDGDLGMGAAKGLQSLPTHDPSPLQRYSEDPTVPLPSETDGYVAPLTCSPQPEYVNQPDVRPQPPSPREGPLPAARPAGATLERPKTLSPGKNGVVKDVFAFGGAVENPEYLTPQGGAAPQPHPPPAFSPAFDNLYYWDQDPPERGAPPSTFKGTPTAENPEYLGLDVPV
# T4 sequence (P04626 23-1255 R896C): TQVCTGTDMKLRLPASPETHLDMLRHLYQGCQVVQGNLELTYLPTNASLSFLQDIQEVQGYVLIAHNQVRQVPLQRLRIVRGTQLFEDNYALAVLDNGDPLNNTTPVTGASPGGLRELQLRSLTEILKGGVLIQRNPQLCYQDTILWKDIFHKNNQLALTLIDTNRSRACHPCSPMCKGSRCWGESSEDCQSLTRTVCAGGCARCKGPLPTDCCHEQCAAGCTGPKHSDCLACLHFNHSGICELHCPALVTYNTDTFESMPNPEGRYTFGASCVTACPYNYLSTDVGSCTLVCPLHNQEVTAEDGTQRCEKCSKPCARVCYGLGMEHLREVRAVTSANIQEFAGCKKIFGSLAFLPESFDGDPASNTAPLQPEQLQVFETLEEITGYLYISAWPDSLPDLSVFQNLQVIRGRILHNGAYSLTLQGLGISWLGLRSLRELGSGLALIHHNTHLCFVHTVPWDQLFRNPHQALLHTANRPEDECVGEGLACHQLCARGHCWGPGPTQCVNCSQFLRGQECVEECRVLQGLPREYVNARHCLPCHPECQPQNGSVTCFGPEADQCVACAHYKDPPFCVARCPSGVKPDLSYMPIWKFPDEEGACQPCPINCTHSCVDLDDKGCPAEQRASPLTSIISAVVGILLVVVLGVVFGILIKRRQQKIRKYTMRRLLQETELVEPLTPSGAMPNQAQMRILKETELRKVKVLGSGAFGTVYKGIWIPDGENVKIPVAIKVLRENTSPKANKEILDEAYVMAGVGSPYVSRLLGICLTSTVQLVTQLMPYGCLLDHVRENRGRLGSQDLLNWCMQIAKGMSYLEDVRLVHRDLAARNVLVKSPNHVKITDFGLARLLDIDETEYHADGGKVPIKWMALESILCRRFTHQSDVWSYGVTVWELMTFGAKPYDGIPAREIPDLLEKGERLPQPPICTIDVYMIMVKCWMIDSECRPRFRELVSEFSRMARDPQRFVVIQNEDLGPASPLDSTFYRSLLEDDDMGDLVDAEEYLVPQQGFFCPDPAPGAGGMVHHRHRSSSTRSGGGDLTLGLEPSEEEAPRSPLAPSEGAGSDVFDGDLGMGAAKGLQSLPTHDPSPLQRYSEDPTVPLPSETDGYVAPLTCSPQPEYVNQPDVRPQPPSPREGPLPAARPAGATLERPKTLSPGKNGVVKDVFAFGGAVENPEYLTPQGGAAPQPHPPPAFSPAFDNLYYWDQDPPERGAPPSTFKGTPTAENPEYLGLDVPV
Structure (SMILES),IC50 (ErbB2 (D769H)),IC50 (ErbB2 (V777L)),IC50 (ErbB2 (D769Y)),IC50 (ErbB2 (R896C))
Cc1cc(Nc2ncnc3ccc(NC(=O)/C=C/[C@H]4CCCN4C)cc23)ccc1Oc1ccc2nccn2n1,9110 pM,14900 pM,38900 pM,3700 pM
Cc1cc(Nc2ncnc3ccc(NC(=O)/C=C/[C@H]4CCCN4C)cc23)ccc1Oc1ccn2ccnc2c1,< 152 pM,< 152 pM,244 pM,379 pM
Cc1cc(Nc2ncnc3ccc(NC(=O)/C=C/[C@H]4CCCN4C)cc23)ccc1Oc1ccn2cnnc2c1,253 pM,625 pM,1980 pM,191 pM
Cc1cc(Nc2ncnc3ccc(NC(=O)/C=C/[C@H]4CCCN4C)cc23)ccc1Oc1cnc2ccnn2c1,< 152 pM,279 pM,600 pM,336 pM
Cc1cc(Nc2ncnc3ccc(NC(=O)/C=C/[C@H]4CCCN4)cc23)ccc1Oc1ccn2ncnc2c1,325 pM,186 pM,246 pM,997 pM
Cc1cc(Nc2ncnc3ccc(NC(=O)/C=C/[C@H]4CCCN4C)cc23)ccc1Oc1cc2nccn2cn1,283 pM,224 pM,216 pM,741 pM
Cc1cc(Nc2ncnc3ccc(NC(=O)/C=C/[C@H]4CCCN4)cc23)ccc1Oc1cc2nncn2cn1,422 pM,357 pM,247 pM,1130 pM
Cc1cc(Nc2ncnc3ccc(NC(=O)/C=C/[C@@H]4CCCN4C)cc23)ccc1Oc1cc2nncn2cn1,549 pM,163 pM,1450 pM,788 pM
CN1CCC[C@@H]1/C=C/C(=O)Nc1ccc2ncnc(Nc3ccc(Oc4cc5nncn5cn4)c(Cl)c3)c2c1,< 152 pM,< 152 pM,< 152 pM,187 pM
COCCOc1cc2ncnc(Nc3ccc(Oc4cc5nncn5cn4)c(C)c3)c2cc1NC(=O)/C=C/[C@H]1CCCN1C,241 pM,< 152 pM,< 152 pM,599 pM

# Reference: patent US20240197737A1, “APPLICATION OF COMPOUND IN PREPARATION OF INHIBITORY DRUG TARGETING ERBB2 MUTANT” (SHANGHAI PHARMACEUTICALS HOLDING CO., LTD., priority 2021, published 2024)
